PubChem BioAssay (NCI)
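Exposure lasted 48 hours, with cells grown in 96-well plates and compounds tested at five concentrations. TGI is the concentration that stops growth completely.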

How the values were obtained:
Experiment in all cases: NCI tumour cell line growth inhibition, 48 h
EKVX NSCLC = test system: EKVX NSCLC
SK-MEL-28 melanoma = test system: SK-MEL-28 melanoma
SF-539 CNS = test system: SF-539 CNS
UACC-62 melanoma = test system: UACC-62 melanoma
SK-MEL-2 melanoma = test system: SK-MEL-2 melanoma
HOP-62 NSCLC = test system: HOP-62 NSCLC
MOLT-4 leukemia = test system: MOLT-4 leukemia
CCRF-CEM leukemia = test system: CCRF-CEM leukemia
HCT-116 colon = test system: HCT-116 colon
HOP-92 NSCLC = test system: HOP-92 NSCLC
UO-31 renal = test system: UO-31 renal
ACHN renal = test system: ACHN renal
SNB-75 CNS = test system: SNB-75 CNS
SNB-78 CNS = test system: SNB-78 CNS
NCI-H522 lung = test system: NCI-H522 lung
LXFL 529 NSCLC = test system: LXFL 529 NSCLC
KM12 colon = test system: KM12 colon
COLO 205 colon = test system: COLO 205 colon
NCI-H226 lung = test system: NCI-H226 lung
DMS 273 small cell lung = test system: DMS 273 small cell lung
NCI-H23 lung = test system: NCI-H23 lung
SN12C renal = test system: SN12C renal
HT29 colon = test system: HT29 colon
M19-MEL melanoma = test system: M19-MEL melanoma
U251 CNS = test system: U251 CNS
SK-MEL-5 melanoma = test system: SK-MEL-5 melanoma
M14 melanoma = test system: M14 melanoma
DLD-1 colon = test system: DLD-1 colon
LOX IMVI melanoma = test system: LOX IMVI melanoma
TK-10 renal = test system: TK-10 renal
OVCAR-4 ovarian = test system: OVCAR-4 ovarian
SK-OV-3 ovarian = test system: SK-OV-3 ovarian
OVCAR-8 ovarian = test system: OVCAR-8 ovarian
HCT-15 colon = test system: HCT-15 colon
A549 NSCLC = test system: A549 NSCLC
SF-295 CNS = test system: SF-295 CNS
786-0 renal = test system: 786-0 renal
SF-268 CNS = test system: SF-268 CNS
UACC-257 melanoma = test system: UACC-257 melanoma
MALME-3M melanoma = test system: MALME-3M melanoma
KM20L2 colon = test system: KM20L2 colon
SW-620 colon = test system: SW-620 colon
HL-60(TB) leukemia = test system: HL-60(TB) leukemia
SNB-19 CNS = test system: SNB-19 CNS
XF 498 CNS = test system: XF 498 CNS
IGROV1 ovarian = test system: IGROV1 ovarian
RXF 393 renal = test system: RXF 393 renal
OVCAR-3 ovarian = test system: OVCAR-3 ovarian
HCC-2998 colon = test system: HCC-2998 colon
K-562 leukemia = test system: K-562 leukemia
SR leukemia = test system: SR leukemia
NCI-H460 lung = test system: NCI-H460 lung
RPMI-8226 leukemia = test system: RPMI-8226 leukemia
HOP-18 NSCLC = test system: HOP-18 NSCLC
CAKI-1 renal = test system: CAKI-1 renal

`CCCCOP1(=O)CC(C)=C(Cl)C(C)(OC)C1` (stereo not drawn) was tested, and the TGI (EKVX NSCLC) was > 100 µM, the TGI (SK-MEL-28 melanoma) was > 100 µM and the TGI (SF-539 CNS) was > 100 µM. The TGI (UACC-62 melanoma) was > 100 µM, the TGI (SK-MEL-2 melanoma) was > 100 µM and the TGI (HOP-62 NSCLC) was > 100 µM. For the same compound, the TGI (MOLT-4 leukemia) was > 100 µM, the TGI (CCRF-CEM leukemia) was 98.7 µM and the TGI (HCT-116 colon) was > 100 µM. The TGI (HOP-92 NSCLC) was > 100 µM, the TGI (UO-31 renal) was > 100 µM and the TGI (ACHN renal) was > 100 µM. For the same compound, the TGI (SNB-75 CNS) was > 100 µM, the TGI (SNB-78 CNS) was > 100 µM and the TGI (NCI-H522 lung) was > 100 µM. For the same compound, the TGI (LXFL 529 NSCLC) was > 100 µM, the TGI (KM12 colon) was > 100 µM and the TGI (COLO 205 colon) was > 100 µM. The TGI (NCI-H226 lung) was > 100 µM, the TGI (DMS 273 small cell lung) was > 100 µM and the TGI (NCI-H23 lung) was > 100 µM. For the same compound, the TGI (SN12C renal) was > 100 µM, the TGI (HT29 colon) was > 100 µM and the TGI (M19-MEL melanoma) was > 100 µM. The TGI (U251 CNS) was > 100 µM, the TGI (SK-MEL-5 melanoma) was > 100 µM and the TGI (M14 melanoma) was > 100 µM. For the same compound, the TGI (DLD-1 colon) was > 100 µM, the TGI (LOX IMVI melanoma) was > 100 µM and the TGI (TK-10 renal) was > 100 µM. For the same compound, the TGI (OVCAR-4 ovarian) was > 100 µM, the TGI (SK-OV-3 ovarian) was > 100 µM and the TGI (OVCAR-8 ovarian) was > 100 µM. For the same compound, the TGI (HCT-15 colon) was > 100 µM, the TGI (A549 NSCLC) was > 100 µM and the TGI (SF-295 CNS) was > 100 µM. For the same compound, the TGI (786-0 renal) was > 100 µM, the TGI (SF-268 CNS) was > 100 µM and the TGI (UACC-257 melanoma) was > 100 µM. The TGI (MALME-3M melanoma) was > 100 µM, the TGI (KM20L2 colon) was > 100 µM and the TGI (SW-620 colon) was > 100 µM. The TGI (HL-60(TB) leukemia) was 69 µM, the TGI (SNB-19 CNS) was > 100 µM and the TGI (XF 498 CNS) was > 100 µM. The TGI (IGROV1 ovarian) was > 100 µM, the TGI (RXF 393 renal) was > 100 µM and the TGI (OVCAR-3 ovarian) was > 100 µM. The TGI (HCC-2998 colon) was > 100 µM, the TGI (K-562 leukemia) was > 100 µM and the TGI (SR leukemia) was 89.3 µM. The TGI (NCI-H460 lung) was > 100 µM.
In the case of `CC1=CC(=O)N2C(OC[C@@H]2c2ccccc2)O1` (stereo partly drawn), the TGI (EKVX NSCLC) is reported as > 100 µM, the TGI (SK-MEL-28 melanoma) is reported as > 100 µM and the TGI (SF-539 CNS) is reported as > 100 µM. For the same compound, the TGI (UACC-62 melanoma) was > 100 µM, the TGI (SK-MEL-2 melanoma) was > 100 µM and the TGI (HOP-62 NSCLC) was > 100 µM. The TGI (MOLT-4 leukemia) was > 100 µM, the TGI (CCRF-CEM leukemia) was > 100 µM and the TGI (HCT-116 colon) was > 100 µM. The TGI (HOP-92 NSCLC) was > 100 µM, the TGI (UO-31 renal) was > 100 µM and the TGI (ACHN renal) was > 100 µM. For the same compound, the TGI (SNB-75 CNS) was > 100 µM, the TGI (NCI-H522 lung) was > 100 µM and the TGI (LXFL 529 NSCLC) was > 100 µM. For the same compound, the TGI (RPMI-8226 leukemia) was > 100 µM, the TGI (KM12 colon) was > 100 µM and the TGI (COLO 205 colon) was > 100 µM. The TGI (NCI-H226 lung) was > 100 µM, the TGI (NCI-H23 lung) was > 100 µM and the TGI (SN12C renal) was > 100 µM. The TGI (HT29 colon) was > 100 µM, the TGI (M19-MEL melanoma) was > 100 µM and the TGI (U251 CNS) was > 100 µM. For the same compound, the TGI (SK-MEL-5 melanoma) was > 100 µM, the TGI (M14 melanoma) was > 100 µM and the TGI (DLD-1 colon) was > 100 µM. For the same compound, the TGI (TK-10 renal) was > 100 µM, the TGI (OVCAR-4 ovarian) was > 100 µM and the TGI (SK-OV-3 ovarian) was > 100 µM. For the same compound, the TGI (OVCAR-8 ovarian) was > 100 µM, the TGI (HCT-15 colon) was > 100 µM and the TGI (A549 NSCLC) was > 100 µM. The TGI (SF-295 CNS) was > 100 µM, the TGI (HOP-18 NSCLC) was > 100 µM and the TGI (786-0 renal) was > 100 µM. For the same compound, the TGI (SF-268 CNS) was > 100 µM, the TGI (UACC-257 melanoma) was > 100 µM and the TGI (MALME-3M melanoma) was > 100 µM. For the same compound, the TGI (KM20L2 colon) was > 100 µM, the TGI (SW-620 colon) was > 100 µM and the TGI (HL-60(TB) leukemia) was > 100 µM. The TGI (SNB-19 CNS) was > 100 µM, the TGI (XF 498 CNS) was > 100 µM and the TGI (IGROV1 ovarian) was > 100 µM. For the same compound, the TGI (CAKI-1 renal) was > 100 µM, the TGI (RXF 393 renal) was > 100 µM and the TGI (OVCAR-3 ovarian) was > 100 µM. The TGI (K-562 leukemia) was > 100 µM, the TGI (SR leukemia) was > 100 µM and the TGI (NCI-H460 lung) was > 100 µM.
